The assay in a line: Antioxidant activity, ABTS radical cation decolorization assay (TEAC). The source says: In order to measure the antioxidant activity, the method developed by R. Re, N. Pellegrini, A. Proteggente, A. Pannala, M. Yang and C. Rice-Evans (Antioxidant activity applying an improved ABTS radical cation decolorization assay, Free Radical Biological Medicine, 1999, 26: 1231-1237) is used. The method is based on the disappearance of the radical ABTS^•+ (2,2-azinobis(3-ethylbenzothiazoline-6-sulphonic) acid) owing to the reducing action of different samples with antioxidant activity. […] The antioxidant activity is detected by the fall in the 734 nm absorbency time.
In order to generate the radical […], the compound ABTS (Sigma), dissolved in water at a concentration of 7 mM, is brought into contact with 2.45 mM potassium persulphate in a ratio of 1:2 for 24 hours in the absence of light. After 24 hours, the absorbency at 734 nm is adjusted to a value of 0.70 ±0.02 with 5 mM of phosphate buffer salt (PBS), 138 mM of NaCl, pH =7.4. In a standard experiment, 1 ml of this solution is added to 10 μl of the sample (1.5 mM) dissolved in 0.02 M sodium phosphate buffer, pH =6.5 The experiment is conducted in triplicate, with each sample being incubated with the radical ABTS^•+ for 10 minutes at 37° C., with readings of the absorbency at 734 nm being taken at 1, 6 and 10 minutes. Used as blank is 0.02 M sodium phosphate buffer, pH =6.5 and at the same time as the incubation of the samples is carried out, the radical […] is incubated without any antioxidant agent (control). The antioxidant activity of each sample is calculated with respect to the absorbency at 734 nm shown by the control. The antioxidant activity of the sample is expressed in relation to the antioxidant activity of TROLOX® (6-hydroxy-2,5,7,8-tetramethylchroman-2-carboxylic acid) (Sigma), analogous to vitamin E, by means of a TEAC value (Trolox equivalent antioxidant capacity) at a certain time.
Different ways of calculating the TEAC value have been developed. We use the method described by F. W. P. C. van Overlveld, G. R. M. M. Haenen, J. Rhemrev, J. P. W. Vermeiden and A. Bast (Tyrosine as important contributor to the antioxidant capacity of seminal plasma, Chemical and Biological Interactions, 2000, 127: 151-161), which is valid for calculating the TEAC value of a pure compound, which provokes a decrease in the absorbency which linearly increases as the concentration is increased. In this case, it would only be necessary to calculate a certain concentration of a compound in order to be able to calculate its TEAC value.
The value 0.2845 represents the decrease in absorbency caused by 1 mM of 6-hydroxy-2,5,7,8-tetramethylchroman-2-carboxylic acid.

Residues, ends and D or L forms follow the SMILES beside them.

With `CC[C@H](C)[C@H](NC(=O)[C@@H]1CCCN1C(=O)[C@H](Cc1ccc(O)cc1)NC(=O)[C@H](CCCNC(=N)N)NC(=O)[C@H](CCC(=O)O)NC(=O)[C@H](CCC(=O)O)NC(=O)[C@H](C)NC(=O)[C@@H](N)Cc1ccc(O)cc1)C(=O)N[C@@H](CC(C)C)C(=O)O` [SEQ. ID. N^o 6] (H-YAEERYPIL-OH; N-terminus and C-terminus assumed), the “antioxidant activity towards free radicals (in words)” value is recorded as “possesses antioxidant activity”. Also, under “1 mg versus 1 mg”, the “times more antioxidant activity than 6-hydroxy-2,5,7,8-tetramethylchroman-2-carboxylic acid” value is reported as 1.3 times. Further, the “TEAC (Trolox equivalent antioxidant capacity)” value (shortened to “TEAC”) (1 minute) came out at 0.8. For the same molecule, for the setting “6 minutes”, the “TEAC” value is on record as 1.2. In addition, where the note is “10 minutes”, the “TEAC” value turned out to be 1.3.

For the origin of these results see US8227207B2, “Bioactive peptides derived from the proteins of egg white by means of enzymatic hydrolysis” (Consejo Superior de Investigaciones Cientifcas, priority 2004, dated 2012).
